Laboratory results: PMC12621202, “RTx-303, an Orally Bioavailable Polθ Polymerase Inhibitor That Potentiates PARP Inhibitors in BRCA Mutant Tumors” (Journal of Medicinal Chemistry, 2025)

Legend:
Assay in all cases: Kinase profiling
Type in all cases: biochemical
Details in all cases: mean n=2, read-out: % Activity with 10 µM RTx-303
A-Raf(h) = target: T1, A-Raf(h) (Homo sapiens, UniProt P10398)
T1 construct: purchased Eurofins (KinaseProfiler)
Procedure: (§1) Supplementary Fig. 8 Pharmacological profiling of RTx-303 against kinases.
(§2) % activity of the indicated kinases is shown following incubation with 10 µM RTx-303 in vitro.
(§3) Data represent mean (n = 2).

ATM(h) = target: T2, ATM(h) (Homo sapiens, UniProt Q13315)
T2 construct: purchased Eurofins (KinaseProfiler)
Procedure: as §1, §2, §3

CDK1/cyclinB(h) = target: T3, CDK1/cyclinB(h) (Homo sapiens, UniProt P06493)
T3 construct: purchased Eurofins (KinaseProfiler)
Procedure: as §1, §2, §3

CDK14/cyclinY(h) = target: T4, CDK14/cyclinY(h) (Homo sapiens, UniProt O94921)
T4 construct: purchased Eurofins (KinaseProfiler)
Procedure: as §1, §2, §3

CDK16/cyclinY(h) = target: T5, CDK16/cyclinY(h) (Homo sapiens, UniProt Q00536)
T5 construct: purchased Eurofins (KinaseProfiler)
Procedure: as §1, §2, §3

CDK17/cyclinY(h) = target: T6, CDK17/cyclinY(h) (Homo sapiens, UniProt Q00537)
T6 construct: purchased Eurofins (KinaseProfiler)
Procedure: as §1, §2, §3

CDK18/cyclinY(h) = target: T7, CDK18/cyclinY(h) (Homo sapiens, UniProt Q07002)
T7 construct: purchased Eurofins (KinaseProfiler)
Procedure: as §1, §2, §3

CDK2/cyclinA(h) = target: T8, CDK2/cyclinA(h) (Homo sapiens, UniProt P24941)
T8 construct: purchased Eurofins (KinaseProfiler)
Procedure: as §1, §2, §3

CDK3/cyclinE(h) = target: T9, CDK3/cyclinE(h) (Homo sapiens, UniProt Q00526)
T9 construct: purchased Eurofins (KinaseProfiler)
Procedure: as §1, §2, §3

CDK5/p25(h) = target: T10, CDK5/p25(h) (Homo sapiens, UniProt Q00535)
T10 construct: purchased Eurofins (KinaseProfiler)
Procedure: as §1, §2, §3

CDK6/cyclinD3(h) = target: T11, CDK6/cyclinD3(h) (Homo sapiens, UniProt Q00534)
T11 construct: purchased Eurofins (KinaseProfiler)
Procedure: as §1, §2, §3

CDK7/cyclinH/MAT1(h) = target: T12, CDK7/cyclinH/MAT1(h) (Homo sapiens, UniProt P50613)
T12 construct: purchased Eurofins (KinaseProfiler)
Procedure: as §1, §2, §3

CDK9/cyclin T1(h) = target: T13, CDK9/cyclin T1(h) (Homo sapiens, UniProt P50750)
T13 construct: purchased Eurofins (KinaseProfiler)
Procedure: as §1, §2, §3

CDKL4(h) = target: T14, CDKL4(h) (Homo sapiens, UniProt Q5MAI5)
T14 construct: purchased Eurofins (KinaseProfiler)
T14 sequence (Q5MAI5 whole entry): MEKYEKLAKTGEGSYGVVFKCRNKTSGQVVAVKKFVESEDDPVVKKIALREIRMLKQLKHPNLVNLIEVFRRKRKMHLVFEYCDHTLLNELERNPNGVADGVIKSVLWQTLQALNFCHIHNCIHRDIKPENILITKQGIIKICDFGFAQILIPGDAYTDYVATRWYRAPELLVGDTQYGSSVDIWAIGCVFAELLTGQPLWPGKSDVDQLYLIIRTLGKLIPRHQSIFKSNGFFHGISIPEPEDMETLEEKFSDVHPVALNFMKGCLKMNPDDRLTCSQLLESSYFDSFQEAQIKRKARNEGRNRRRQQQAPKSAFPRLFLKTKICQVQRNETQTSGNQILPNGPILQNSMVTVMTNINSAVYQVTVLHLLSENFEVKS
Procedure: as §1, §2, §3

Cdc7/cyclinB1(h) = target: T15, Cdc7/cyclinB1(h) (Homo sapiens, UniProt O00311)
T15 construct: purchased Eurofins (KinaseProfiler)
Procedure: as §1, §2, §3

ChaK1(h) = target: T16, ChaK1(h) (Homo sapiens, UniProt Q96QT4)
T16 construct: purchased Eurofins (KinaseProfiler)
Procedure: as §1, §2, §3

DNA-PK(h) = target: T17, DNA-PK(h) (Homo sapiens, UniProt P78527)
T17 construct: purchased Eurofins (KinaseProfiler)
Procedure: as §1, §2, §3

DYRK3(h) = target: T18, DYRK3(h) (Homo sapiens, UniProt O43781)
T18 construct: purchased Eurofins (KinaseProfiler)
Procedure: as §1, §2, §3

GRK5(h) = target: T19, GRK5(h) (Homo sapiens, UniProt P34947)
T19 construct: purchased Eurofins (KinaseProfiler)
Procedure: as §1, §2, §3

GRK6(h) = target: T20, GRK6(h) (Homo sapiens, UniProt P43250)
T20 construct: purchased Eurofins (KinaseProfiler)
Procedure: as §1, §2, §3

MAPKAP-K3(h) = target: T21, MAPKAP-K3(h) (Homo sapiens, UniProt Q16644)
T21 construct: purchased Eurofins (KinaseProfiler)
T21 sequence (Q16644 whole entry): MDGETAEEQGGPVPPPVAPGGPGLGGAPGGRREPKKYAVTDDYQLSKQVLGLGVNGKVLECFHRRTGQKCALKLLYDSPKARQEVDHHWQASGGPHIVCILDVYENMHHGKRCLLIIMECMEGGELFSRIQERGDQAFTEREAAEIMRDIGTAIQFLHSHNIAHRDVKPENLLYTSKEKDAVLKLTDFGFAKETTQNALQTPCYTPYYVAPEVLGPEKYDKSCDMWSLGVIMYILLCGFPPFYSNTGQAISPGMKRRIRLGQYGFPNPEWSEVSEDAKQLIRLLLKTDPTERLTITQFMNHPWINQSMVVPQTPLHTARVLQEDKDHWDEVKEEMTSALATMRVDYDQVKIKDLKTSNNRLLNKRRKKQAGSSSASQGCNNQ
Procedure: as §1, §2, §3

MLK4(h) = target: T22, MLK4(h) (Homo sapiens, UniProt Q5TCX8)
T22 construct: purchased Eurofins (KinaseProfiler)
Procedure: as §1, §2, §3

MOK(h) = target: T23, MOK(h) (Homo sapiens, UniProt Q9UQ07)
T23 construct: purchased Eurofins (KinaseProfiler)
Procedure: as §1, §2, §3

PASK(h) = target: T24, PASK(h) (Homo sapiens, UniProt Q96RG2)
T24 construct: purchased Eurofins (KinaseProfiler)
T24 sequence (Q96RG2 whole entry): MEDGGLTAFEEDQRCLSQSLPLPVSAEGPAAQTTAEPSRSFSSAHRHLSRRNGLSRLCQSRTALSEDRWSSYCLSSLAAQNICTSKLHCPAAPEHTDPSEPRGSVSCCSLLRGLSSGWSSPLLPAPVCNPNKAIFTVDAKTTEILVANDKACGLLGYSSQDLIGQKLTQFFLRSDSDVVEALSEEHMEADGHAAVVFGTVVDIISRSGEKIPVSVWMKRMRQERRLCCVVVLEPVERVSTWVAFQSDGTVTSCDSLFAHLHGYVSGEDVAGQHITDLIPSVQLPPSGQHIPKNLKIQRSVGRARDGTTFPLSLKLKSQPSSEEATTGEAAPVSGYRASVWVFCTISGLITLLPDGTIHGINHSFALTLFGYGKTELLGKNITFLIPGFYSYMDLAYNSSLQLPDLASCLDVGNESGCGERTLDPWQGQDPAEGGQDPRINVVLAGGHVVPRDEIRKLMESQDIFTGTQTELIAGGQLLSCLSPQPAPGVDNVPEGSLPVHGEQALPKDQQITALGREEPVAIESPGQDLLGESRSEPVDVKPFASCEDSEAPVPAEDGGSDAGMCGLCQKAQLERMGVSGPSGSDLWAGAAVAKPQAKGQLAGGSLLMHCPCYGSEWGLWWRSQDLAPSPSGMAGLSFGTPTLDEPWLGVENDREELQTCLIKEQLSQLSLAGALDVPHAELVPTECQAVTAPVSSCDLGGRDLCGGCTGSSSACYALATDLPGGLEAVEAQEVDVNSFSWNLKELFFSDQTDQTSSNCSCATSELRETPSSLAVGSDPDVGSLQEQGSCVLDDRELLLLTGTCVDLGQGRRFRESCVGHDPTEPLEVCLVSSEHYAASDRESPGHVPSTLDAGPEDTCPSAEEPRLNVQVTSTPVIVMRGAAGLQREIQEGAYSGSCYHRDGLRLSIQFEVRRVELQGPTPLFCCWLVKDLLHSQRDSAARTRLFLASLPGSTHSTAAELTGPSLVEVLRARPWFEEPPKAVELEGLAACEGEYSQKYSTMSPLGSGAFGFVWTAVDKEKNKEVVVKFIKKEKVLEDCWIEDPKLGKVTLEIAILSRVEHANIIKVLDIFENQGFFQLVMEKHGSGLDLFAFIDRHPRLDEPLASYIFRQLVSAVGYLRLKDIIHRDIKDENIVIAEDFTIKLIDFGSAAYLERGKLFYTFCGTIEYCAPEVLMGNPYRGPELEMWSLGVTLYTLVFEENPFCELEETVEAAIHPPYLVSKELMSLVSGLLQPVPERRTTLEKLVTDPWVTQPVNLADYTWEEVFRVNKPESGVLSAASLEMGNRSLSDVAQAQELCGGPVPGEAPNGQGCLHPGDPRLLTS
Procedure: as §1, §2, §3

PDHK4(h) = target: T25, PDHK4(h) (Homo sapiens, UniProt Q16654)
T25 construct: purchased Eurofins (KinaseProfiler)
Procedure: as §1, §2, §3

PEK(h) = target: T26, PEK(h) (Homo sapiens, UniProt Q9NZJ5)
T26 construct: purchased Eurofins (KinaseProfiler)
T26 sequence (Q9NZJ5 30-1116): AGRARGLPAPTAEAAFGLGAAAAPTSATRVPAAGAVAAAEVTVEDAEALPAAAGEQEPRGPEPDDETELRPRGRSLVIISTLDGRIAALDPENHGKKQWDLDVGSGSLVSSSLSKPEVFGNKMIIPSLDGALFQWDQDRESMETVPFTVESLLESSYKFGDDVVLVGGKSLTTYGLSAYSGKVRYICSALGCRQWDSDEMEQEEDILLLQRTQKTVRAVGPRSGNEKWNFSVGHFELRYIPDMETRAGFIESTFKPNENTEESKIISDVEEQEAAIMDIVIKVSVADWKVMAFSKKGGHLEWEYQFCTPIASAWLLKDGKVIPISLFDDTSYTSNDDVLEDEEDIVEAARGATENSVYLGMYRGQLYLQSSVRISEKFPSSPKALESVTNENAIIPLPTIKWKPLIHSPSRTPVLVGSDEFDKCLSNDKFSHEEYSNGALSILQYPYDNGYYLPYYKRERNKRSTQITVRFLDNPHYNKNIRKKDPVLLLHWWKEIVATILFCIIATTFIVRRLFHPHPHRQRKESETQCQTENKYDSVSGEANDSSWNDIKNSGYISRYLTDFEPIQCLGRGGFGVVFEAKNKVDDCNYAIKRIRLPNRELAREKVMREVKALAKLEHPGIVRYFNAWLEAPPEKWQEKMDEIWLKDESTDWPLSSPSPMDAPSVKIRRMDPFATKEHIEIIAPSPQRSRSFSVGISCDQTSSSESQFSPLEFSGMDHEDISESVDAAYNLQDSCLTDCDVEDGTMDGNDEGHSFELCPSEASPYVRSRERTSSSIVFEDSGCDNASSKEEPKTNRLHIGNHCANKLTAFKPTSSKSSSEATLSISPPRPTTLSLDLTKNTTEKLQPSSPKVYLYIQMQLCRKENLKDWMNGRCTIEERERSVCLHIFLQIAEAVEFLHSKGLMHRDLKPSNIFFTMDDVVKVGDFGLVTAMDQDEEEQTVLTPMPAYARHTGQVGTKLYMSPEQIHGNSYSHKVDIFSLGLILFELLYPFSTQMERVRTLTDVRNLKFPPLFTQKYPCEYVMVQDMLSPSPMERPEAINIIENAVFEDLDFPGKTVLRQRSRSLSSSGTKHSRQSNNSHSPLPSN
Procedure: as §1, §2, §3

PI3KC2a(h) = target: T27, PI3KC2a(h) (Homo sapiens, UniProt O00443)
T27 construct: purchased Eurofins (KinaseProfiler)
Procedure: as §1, §2, §3

PKCα(h) = target: T28, PKCα(h) (Homo sapiens, UniProt P17252)
T28 construct: purchased Eurofins (KinaseProfiler)
Procedure: as §1, §2, §3

PKCγ(h) = target: T29, PKCγ(h) (Homo sapiens, UniProt P05129)
T29 construct: purchased Eurofins (KinaseProfiler)
Procedure: as §1, §2, §3

TAF1L(h) = target: T30, TAF1L(h) (Homo sapiens, UniProt Q8IZX4)
T30 construct: purchased Eurofins (KinaseProfiler)
T30 sequence (Q8IZX4 whole entry): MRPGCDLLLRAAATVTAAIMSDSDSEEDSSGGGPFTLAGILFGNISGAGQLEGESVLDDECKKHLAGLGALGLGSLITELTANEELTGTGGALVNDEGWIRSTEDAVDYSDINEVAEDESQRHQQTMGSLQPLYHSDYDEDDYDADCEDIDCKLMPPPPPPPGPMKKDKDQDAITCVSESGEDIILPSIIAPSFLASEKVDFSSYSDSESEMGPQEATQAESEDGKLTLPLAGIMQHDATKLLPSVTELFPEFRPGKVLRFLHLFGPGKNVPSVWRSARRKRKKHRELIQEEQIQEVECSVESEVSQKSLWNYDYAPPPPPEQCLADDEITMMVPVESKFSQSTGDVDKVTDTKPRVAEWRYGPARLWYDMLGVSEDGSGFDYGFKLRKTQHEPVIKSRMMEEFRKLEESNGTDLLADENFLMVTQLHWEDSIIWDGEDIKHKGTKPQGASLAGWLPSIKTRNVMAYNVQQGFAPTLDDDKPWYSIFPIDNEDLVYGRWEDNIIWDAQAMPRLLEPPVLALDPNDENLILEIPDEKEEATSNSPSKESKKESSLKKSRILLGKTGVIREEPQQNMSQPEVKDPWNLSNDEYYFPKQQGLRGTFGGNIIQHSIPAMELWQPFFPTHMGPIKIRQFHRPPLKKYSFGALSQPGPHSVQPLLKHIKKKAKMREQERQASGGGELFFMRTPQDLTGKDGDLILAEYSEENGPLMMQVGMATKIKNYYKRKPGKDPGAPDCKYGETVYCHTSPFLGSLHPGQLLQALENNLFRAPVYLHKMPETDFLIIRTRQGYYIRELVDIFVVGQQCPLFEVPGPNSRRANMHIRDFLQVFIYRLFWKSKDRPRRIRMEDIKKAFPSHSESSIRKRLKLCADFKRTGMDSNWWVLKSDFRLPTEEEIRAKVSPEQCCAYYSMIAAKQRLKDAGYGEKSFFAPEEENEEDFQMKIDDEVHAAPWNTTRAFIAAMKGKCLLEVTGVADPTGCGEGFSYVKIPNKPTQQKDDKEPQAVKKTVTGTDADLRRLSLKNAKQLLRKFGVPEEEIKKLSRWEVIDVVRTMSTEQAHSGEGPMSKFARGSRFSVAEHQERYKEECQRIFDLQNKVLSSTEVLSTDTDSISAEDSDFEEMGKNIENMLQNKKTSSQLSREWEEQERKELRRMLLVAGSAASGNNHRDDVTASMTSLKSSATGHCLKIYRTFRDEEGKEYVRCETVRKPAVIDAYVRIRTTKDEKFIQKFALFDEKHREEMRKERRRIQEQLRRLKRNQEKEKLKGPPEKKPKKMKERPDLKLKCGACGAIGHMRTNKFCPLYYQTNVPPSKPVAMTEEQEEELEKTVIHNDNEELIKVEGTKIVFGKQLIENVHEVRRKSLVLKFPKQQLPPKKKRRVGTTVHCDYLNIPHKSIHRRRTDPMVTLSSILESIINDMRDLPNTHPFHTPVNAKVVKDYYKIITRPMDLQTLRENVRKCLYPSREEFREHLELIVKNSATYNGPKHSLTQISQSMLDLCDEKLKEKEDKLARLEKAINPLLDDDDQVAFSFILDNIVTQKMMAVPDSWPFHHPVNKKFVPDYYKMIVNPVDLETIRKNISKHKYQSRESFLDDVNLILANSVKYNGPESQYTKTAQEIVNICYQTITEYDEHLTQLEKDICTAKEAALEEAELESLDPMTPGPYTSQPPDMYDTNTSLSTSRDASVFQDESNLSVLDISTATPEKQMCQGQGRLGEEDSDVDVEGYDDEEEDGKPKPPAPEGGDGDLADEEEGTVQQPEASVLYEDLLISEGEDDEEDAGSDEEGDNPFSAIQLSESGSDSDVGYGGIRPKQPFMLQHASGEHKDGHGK
Procedure: as §1, §2, §3

TRB2(h) = target: T31, TRB2(h) (Homo sapiens, UniProt Q92519)
T31 construct: purchased Eurofins (KinaseProfiler)
Procedure: as §1, §2, §3

TSSK2(h) = target: T32, TSSK2(h) (Homo sapiens, UniProt Q96PF2)
T32 construct: purchased Eurofins (KinaseProfiler)
Procedure: as §1, §2, §3

TSSK4(h) = target: T33, TSSK4(h) (Homo sapiens, UniProt Q6SA08)
T33 construct: purchased Eurofins (KinaseProfiler)
Procedure: as §1, §2, §3

TTBK1(h) = target: T34, TTBK1(h) (Homo sapiens, UniProt Q5TCY1)
T34 construct: purchased Eurofins (KinaseProfiler)
Procedure: as §1, §2, §3

TTBK2(h) = target: T35, TTBK2(h) (Homo sapiens, UniProt Q6IQ55)
T35 construct: purchased Eurofins (KinaseProfiler)
Procedure: as §1, §2, §3

VRK1(h) = target: T36, VRK1(h) (Homo sapiens, UniProt Q99986)
T36 construct: purchased Eurofins (KinaseProfiler)
Procedure: as §1, §2, §3

eEF-2K(h) = target: T37, eEF-2K(h) (Homo sapiens, UniProt O00418)
T37 construct: purchased Eurofins (KinaseProfiler)
Procedure: as §1, §2, §3

## [2H]C([2H])([2H])N(C(=O)Oc1c(N2CCN(C[C@H](O)CN(C)C)C2=O)cc(C(F)(F)F)cc1C(F)(F)F)c1ccc(F)cc1 [RTx-303]
A-Raf(h)
  activity at 10 µM: 105%
ATM(h)
  activity at 10 µM: 93%
CDK1/cyclinB(h)
  activity at 10 µM: 105%
CDK14/cyclinY(h)
  activity at 10 µM: 105%
CDK16/cyclinY(h)
  activity at 10 µM: 102%
CDK17/cyclinY(h)
  activity at 10 µM: 110%
CDK18/cyclinY(h)
  activity at 10 µM: 89%
CDK2/cyclinA(h)
  activity at 10 µM: 100%
CDK3/cyclinE(h)
  activity at 10 µM: 114%
CDK5/p25(h)
  activity at 10 µM: 104%
CDK6/cyclinD3(h)
  activity at 10 µM: 101%
CDK7/cyclinH/MAT1(h)
  activity at 10 µM: 109%
CDK9/cyclin T1(h)
  activity at 10 µM: 119%
CDKL4(h)
  activity at 10 µM: 99%
Cdc7/cyclinB1(h)
  activity at 10 µM: 92%
ChaK1(h)
  activity at 10 µM: 102%
DNA-PK(h)
  activity at 10 µM: 94%
DYRK3(h)
  activity at 10 µM: 113%
GRK5(h)
  activity at 10 µM: 103%
GRK6(h)
  activity at 10 µM: 90%
MAPKAP-K3(h)
  activity at 10 µM: 98%
MLK4(h)
  activity at 10 µM: 109%
MOK(h)
  activity at 10 µM: 100%
PASK(h)
  activity at 10 µM: 75%
PDHK4(h)
  activity at 10 µM: 93%
PEK(h)
  activity at 10 µM: 104%
PI3KC2a(h)
  activity at 10 µM: 79%
PKCα(h)
  activity at 10 µM: 103%
PKCγ(h)
  activity at 10 µM: 111%
TAF1L(h)
  activity at 10 µM: 95%
TRB2(h)
  activity at 10 µM: 98%
TSSK2(h)
  activity at 10 µM: 102%
TSSK4(h)
  activity at 10 µM: 117%
TTBK1(h)
  activity at 10 µM: 101%
TTBK2(h)
  activity at 10 µM: 99%
VRK1(h)
  activity at 10 µM: 92%
eEF-2K(h)
  activity at 10 µM: 94%
